Results as given in US12281335B2, “Methods and compositions for delivery of viral vectors across the blood-brain barrier” (priority 2017, dated 2025).
“Also recorded” adds a separate entry of the source. Ends that are not written are not given here.

Tests used:
[1] = test system: HEK293 cells or Huh7 cells; assay: In vitro transduction assay, AAV8/luc with peptides; format: cell-based, human; conditions: 10000 vg AAV8/luc incubated with peptides 2 h at 4° C.; both cell lines; 48 h; vs AAV8 only
Procedure: In vitro transduction assay. At least 4-5 h prior to AAV transduction, cells were seeded in 48-well plates with a density of 1E+05 cells each well. Cells were infected with 1E+04 vector genomes (vg) of AAV8/luc virus per cell and harvested after 48 h. Luciferase activity was measured following manufacturer's instruction (Promega, Madison, WI).
The complex of AAV8 and peptides influences AAV8 transduction in vitro and in vivo. To identify the potential and functional peptides that enhanced AAV8 transduction, we screened several reported peptides as shown in Table 5 and Table 6. First, we tested the cytotoxicity of peptides at different concentrations on cells. […] After that, we performed the transduction assay in vitro. We incubated the 10000 vg AAV8/luc and peptides for 2 h at 4° C., and then applied the mixture to HEK293 cells or Huh7 cells. After 48 h, the cell lysate was collected for luciferase analysis.

C57BL/6 mice [2] = assay: In vivo luciferase imaging after retro-orbital injection of AAV8/luc with peptides; parameters: species or system mouse; conditions: 0.1 mM peptides + 5E+10 vg AAV8/luc, retro-orbital vein, 7th day
Procedure: Animal study. […] Mice were administered with AAV8/Luc incubated with peptides via retro-orbital injection. Luciferase expression was imaged at the indicated time points using a Xenogen IVIS Lumina (Caliper Lifesciences, Waltham, MA) following intraperitoneal injection of D-luciferin substrate (Nanolight Pinetop, AZ). Bioluminescent images were analyzed using Living Image (PerkinElmer, Waltham, MA). At various time points after injection, blood was collected from the retro-orbital plexus, and the viral titers were tested by qPCR.

C57BL/6 mice [3] = assay: Quantitation of luciferase expression in tissues; format: in vivo, mouse; conditions: 0.1 mM peptides + 5E+10 vg AAV8/luc
Procedure: Quantitation of luciferase expression in tissues. Animals utilized for imaging studies were sacrificed after one-week post imaging work, and the tissues of the heart, liver, spleen, skeletal muscle and brain were collected, and were minced and homogenized in passive lysis buffer. Then the lysates were centrifuged at 10,000 rpm for 5 minutes to remove cellular debris. Supernatant was transferred to 96-well plates for luciferase activity analysis as described above. Total protein concentration in tissue lysates was measured using the Bradford assay (Bio-Rad Laboratories, Philadelphia, PA).

C57BL/6 mice [4] = assay: Measurement of AAV genome copy number in tissue; format: in vivo, mouse; conditions: 0.1 mM peptides + 5E+10 vg AAV8/luc; vs AAV8 only
Procedure: Measurement of AAV genome copy number in tissue. Total gDNA from different minced tissues was isolated with the DNeasy blood & tissue kit (Qiagen, USA). Luciferase gene was measured by qPCR assay. Mouse-lamin gene served as an internal control.

[5] = test system: human transferrin binding to AAV8 virions; assay: AAV8 competitive binding assay; conditions: pre-incubation with AAV8, then human transferrin; pull down with transferrin antibody, qPCR
Procedure: AAV8 competitive binding assay. For THR competitive binding analysis, 10 ul of Protein G resin (Thermo, USA) per system was incubated with 1 ug of human transferrin antibody or goat IgG antibody control at 4° C. overnight. […] After that, the mixture was added to the complex of protein G resin and transferrin antibody and incubated at 4° C. overnight. Finally, the complex was stringently washed three times with cold DPBS. DNA from the complex was extracted and applied for qPCR to determine AAV genome copy number per cell using luc specific primers.
To investigate whether THR also binds to the same location of AAV8 virions as human serum proteins, we performed a competitive assay. […] The transferrin antibody was used to pull down transferrin bound AAV8 virions and AAV8 gene copy number was measured by qPCR.

[6] = test system: BBB hCMEC/D3 endothelial cells; assay: In vitro endothelial cell permeability analysis of AAV9; format: cell-based, human; conditions: AAV9 pre-incubated with PB5-3 vs AAV9 with DPBS
Procedure: Media in the basal chamber was collected at indicated time points and viral genome copy number was analyzed by qPCR. All treatments were performed in triplicate. *p<0.05 when compared to cells with the AAV9 only.
PB5-3 peptide enhances AAV9 permeability in vitro. To study whether PB5-3 affects the ability of AAV9 to cross the endothelial cell layer, we performed an in vitro endothelial cell permeability analysis in a well-defined system using BBB hCMEC/D3 endothelial cells. Two groups were designed: an AAV9 vector incubated with DPBS (AAV9 cohort); and an AAV9 vector incubated with PB5-3 (AAV9-PB5-3 cohort). […] These observations indicate that the interaction of AAV9 with the PB5-3 peptide increased the ability of AAV9 to cross the BBB.

different cell types = conditions: different concentrations, 48 hrs
Procedure: 1×10^4 cells were incubated with PB5-3 peptide at different concentrations for 48 hrs. Cell proliferation was analyzed with MTT assay (FIG. 14A). AAV9/luc vectors at a dose of 1×10^9 particles were incubated with PB5-3 peptide for 2 hrs at 4° C., then the mixture was applied to different cells and incubated for 2 days. Luciferase expression from cell lysate was detected (FIG. 14B). For comparison, PB5-3 was added to cells just before infection of AAV9 (FIG. 14C).

C57BL mice [7] = assay: Systemic administration of AAV9/PB5-3 complex, imaging and genome copy number; format: in vivo, mouse
Procedure: 1×10^10 particles of AAV9/luc vectors were incubated with PB5-3 for 2 hr at 4° C. The complex was injected into C57BL mice via the retro-orbital vein. At indicated time points, mouse imaging was performed. (FIG. 16A) representative imaging. (FIG. 16B) luciferase expression. (FIG. 16C) AAV genome copy number. The results represented the average and standard derivation from five mice.
PB5-3 peptide enhances AAV9 transduction in the brain after systemic administration. To study the effect of PB5-3 peptide on AAV9 transduction in mice, we injected AAV9 vectors pre-incubated with PB5-3 peptide into C57BL mice via the retro-orbital vein. At days 1, 3, 7, and 14 post AAV administration, mouse imaging was taken. […] Transduction in the liver was similar regardless of AAV9 pre-incubation with PB5-3 peptide (FIG. 16B). Consistent to tissue transgene expression, AAV genome copy number in the brain but not in other tissues was higher in mice receiving the complex of AAV9 and PB5-3 (FIG. 16C).

C57BL mice [8] = assay: Systemic administration of AAV6 and AAV8 pre-incubated with PB5-3, imaging; format: in vivo, mouse; conditions: pre-incubated with PB5-3, days 5 and 10
Procedure: AAV/luc vectors from serotypes 6 or 8 at a dose of 5×10^10 or 1×10^10 particles, respectively, were incubated with PB5-3 for 2 hrs at 4° C. The complex was injected into C57BL mice via retro-orbital vein. At day 5 and 10 post AAV injection, mouse imaging was carried out. Representative imaging is shown from five mice.
No effect of PB5-3 peptide on AAV brain transduction from other serotypes after systemic administration. To confirm the result in vitro that PB5-3 peptide could not efficiently bind to other AAV serotypes except for AAV9, we administered AAV6 and AAV8 vectors pre-incubated with PB5-3 in C57BL mice via retro-orbital injection. At days 5 and 10 post AAV application, mouse imaging was carried out.

Huh7 or hCMEC/D3 cells = assay: Transduction of AAV serotypes 2, 6 and 8 with PB5-3 in vitro; format: cell-based; conditions: incubated with PB5-3; either cell line
Procedure: 1×10^9 particles of AAV/luc vectors from serotype 2 (FIG. 15A), 6 (FIG. 15B), and 8 (FIG. 15C) were incubated with PB5-3 peptide for 2 hr at 4° C. The complex of AAV vector and peptide was applied to Huh7 or hCMEC/D3 cells. Two days later, the lysate from these cells was harvested for luciferase analysis.
Analysis of enhancement of AAV transduction from other serotypes with PB5-3 peptide in vitro. To further investigate the specific effect of PB5-3 on AAV9, we tested the effect of PB5-3 on AAV transduction from other serotypes. AAV vectors from serotypes 2, 6, and 8 were incubated with PB5-3 and then the mixture was applied to Huh7 or hCMEC/D3 cells. The transduction was detected two days later after AAV infection.

[9] = test system: Huh7, Hela, C2C12 and hCMEC/D3; assay: AAV9/luc transduction in cell lines with PB5-3; format: cell-based
Procedure: Cell proliferation was analyzed with MTT assay (FIG. 14A). […] Luciferase expression from cell lysate was detected (FIG. 14B).
PB5-3 peptide specifically enhances AAV9 transduction in cell lines. Next, we examined the effect of PB5-3 on AAV9 transduction in vitro. […] Consistent with previous studies, the direct interaction of peptide and AAV virions is required to enhance AAV9 transduction.

AAV9 virions = assay: Phage binding to AAV-coated plate
Procedure: FIGS. 13A-13B show binding specificity of PB5-3 peptide to AAV9. After coating with 1×10^10 particles of AAV9, different phages at a dose of 1×10^11 were added to a 96 well plate and incubated. After washing, the number of bound phages was detected (FIG. 13A). A 96 well-plate was coated with 1×10^10 particles of AAV vectors/well from serotypes 6, 8 and 9 overnight. After washing, 1×10^11 of PB5-3 phages were added and incubated at room temperature for 2 hrs. After washing, the phage particles were detected (FIG. 13B).
To study the AAV9 virion binding affinity of the peptides isolated from phage, first we compared the affinity of the different peptides to AAV9 virions. After incubation of an AAV9-coated plate with different phages and several washings, much more PB5-3 phages were detected to bind to AAV9 than PB5-5 and PB5-14 phages (FIG. 13A). […] We coated the plate with AAV virions from different serotypes. After incubation with PB5-3 phages, the number of phages on the AAV9-coated plate was much higher than that with AAV6 and AAV8 (FIG. 13B).

Substance	AAV8 transduction (luciferase) [1]	transgene expression in the liver (imaging) (C57BL/6 mice [2])	AAV8 brain transduction (luc expression and genome number) (C57BL/6 mice [3])	AAV genome copy number in the brain (C57BL/6 mice [4])	further results
GRKKRRQRRRPPQ [HIV-1 TAT (48-60)]	significantly enhanced AAV8 transduction	higher	no effect on brain transduction		AAV8 liver transduction (C57BL/6 mice [3]): increased AAV8 liver transduction
TFFYGGSRGKRNNFKTEEY-OH [Angiopep-2]		higher	increased AAV8 transduction in the brain	much higher	
KKALLALALHHLAHLALALKKAC [LAH4]	significantly enhanced AAV8 transduction	higher	no effect on brain transduction		AAV8 liver transduction (C57BL/6 mice [3]): increased AAV8 liver transduction
FILMVWAPFI [PEPXT-1, control peptide, neutral polarity]					inhibition of transferrin binding to AAV8 [5]: no effect
QFAALPVRAHYG-NH2 [PB5-3]					endothelial cell permeability of AAV9 [6]: significant increase in the endothelial cell permeability; also recorded: increases AAV9 permeability; toxicity (MTT assay) (different cell types): no toxicities; AAV9 transduction in brain (imaging) (C57BL mice [7]; 1×10^10 particles AAV9/luc pre-incubated with PB5-3, retro-orbital vein): specifically enhanced AAV9 ability to cross the BBB and increase brain transduction; also recorded: high transduction in brain tissues; AAV genome copy number in the brain (C57BL mice [7]; complex of AAV9 and PB5-3, not in other tissues): higher; AAV9 transduction in the liver (C57BL mice [7]; with vs without PB5-3 pre-incubation): similar; brain transduction from AAV6 and AAV8 (C57BL mice [8]): No brain transduction enhancement; also recorded: no effect; transduction of AAV2, 6 or 8 (Huh7 or hCMEC/D3 cells): No enhanced transduction; also recorded: no enhancement; AAV9 transduction, PB5-3 incubated with AAV9 virions ([9]; 2 hrs at 4° C. pre-incubation, Huh7, Hela, C2C12 and hCMEC/D3): enhanced transduction; also recorded: specifically enhances AAV9 transduction in vitro; AAV9 transduction, PB5-3 without incubation ([9]; PB5-3 added to cells just before infection of AAV9): failed to increase AAV9 transduction; number of phages on AAV9-coated plate vs other serotypes (AAV9 virions; vs AAV6 and AAV8 coated plates): much higher; phages bound to AAV9-coated plate (AAV9 virions; vs PB5-5 and PB5-14 phages): much more
YQQILTSMPSRNVIQISNDLENLRDLLHVL [Leptin 30 (61-90)]	significantly enhanced AAV8 transduction	higher	increased AAV8 transduction in the brain	much higher	
(LRKLRKRLL)2 (LRKLRKRLLLRKLRKRLL) [ApoE (159-167)2]		higher	increased AAV8 transduction in the brain	much higher	
